This is an account of results in patent US8722937B2 (priority 2006, dated 2014).

Structures are written as SMILES. In brackets after ≈: the same amount, converted by molar mass. Like-named read-outs stand apart in the source and are kept apart here.

For assay [1], the target named is T1, FabH derived from E. coli (ecFabH) (Escherichia coli, UniProt P0A6R0).
T1 construct: polyhistidine (N); made in house; host or cells: E. coli
T1 sequence (P0A6R0 1-317): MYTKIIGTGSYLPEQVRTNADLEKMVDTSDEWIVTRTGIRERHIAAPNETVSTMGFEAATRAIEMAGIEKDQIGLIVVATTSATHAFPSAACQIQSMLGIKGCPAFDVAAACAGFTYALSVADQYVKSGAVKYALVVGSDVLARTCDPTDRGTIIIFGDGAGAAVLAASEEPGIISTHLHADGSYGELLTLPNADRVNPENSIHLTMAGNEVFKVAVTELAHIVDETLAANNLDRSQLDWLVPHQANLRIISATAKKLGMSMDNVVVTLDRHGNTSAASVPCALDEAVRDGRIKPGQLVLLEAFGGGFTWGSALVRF
Nature of the assay: FabH enzyme assay (coupled trichloroacetic acid precipitation assay), ecFabH. Particulars: for IC50: 15 min preincubation at 23° C., duplicate assays, read-out: IC50 against ecFabH. The format is biochemical.

Assay [2] concerns the target FabH derived from M. tuberculosis (mtFabH) (Mycobacterium tuberculosis, UniProt P9WNG3). Particulars: for IC50: read-out: IC50 against mtFabH.
Assay [3] relates to S. aureus (ATCC 25923). Nature of the assay: microbe, parasite or virus in culture. The format is cell-based, Staphylococcus aureus. To be noted: 24 h, 37° C.; for zone of inhibition at 20 µg/disc: Staphylococcus aureus, ATCC25923.
The test system of assay [4] is methicillin-resistant S. aureus (MRSA). Nature of the assay: microbe, parasite or virus in culture. The format is cell-based, Staphylococcus aureus. To be noted: 24 h, 37° C.
For assay [5], the system named is S. aureus (ATCC 25923). Nature of the assay: Agar dilution minimum inhibitory concentration (MIC), S. aureus. The format is cell-based, Staphylococcus aureus. Particulars: Staphylococcus aureus, ATCC25923; serial dilution in 24-well plate, NCCLS; read-out: Minimum inhibitory concentration (MIC) against S. aureus (ATCC 25923). (In agar dilution, organisms are placed on agar that contains the substance at set levels.)

The subject of assay [6] is B. anthracis (USF 848). Nature of the assay: microbe, parasite or virus in culture. The format is cell-based, Bacillus anthracis. Particulars: Bacillus anthracis, 24 h, 37° C.
The test system of assay [7] is B. anthracis (USF 848). Nature of the assay: microbe, parasite or virus in culture. The format is cell-based, Bacillus anthracis. Particulars: Bacillus anthracis, read-out: Minimum inhibitory concentration (MIC) against B. anthracis (USF 848).
Assay [8] has as its system E. coli (K12; ATCC 23590). Nature of the assay: Kirby-Bauer zones of inhibition, E. coli. The format is cell-based, Escherichia coli. Particulars: K12 strain, ATCC 23590.
In assay [9] the test system is E. coli (K12; ATCC 23590). The assay is described as follows: Minimum inhibitory concentration (MIC), E. coli. The format is cell-based. To be noted: Escherichia coli, ATCC23590, read-out: MIC (μg/mL) against E. coli.

FabH derived from M. tuberculosis (mtFabH), sequence (P9WNG3 whole entry): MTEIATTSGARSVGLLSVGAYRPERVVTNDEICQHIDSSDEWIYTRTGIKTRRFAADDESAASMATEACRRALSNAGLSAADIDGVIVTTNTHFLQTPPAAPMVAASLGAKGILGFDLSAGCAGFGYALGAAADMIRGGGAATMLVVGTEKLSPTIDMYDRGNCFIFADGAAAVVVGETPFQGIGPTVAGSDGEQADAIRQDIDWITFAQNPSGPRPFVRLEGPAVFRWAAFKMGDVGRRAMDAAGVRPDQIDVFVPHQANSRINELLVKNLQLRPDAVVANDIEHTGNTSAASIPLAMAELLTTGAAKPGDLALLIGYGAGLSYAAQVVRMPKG

With `COC1C(=O)N(SC)C1c1ccccc1Cl` (stereo not drawn) [Compound 2a], the “Percent inhibition of ecFabH” value in assay [1] (1 μM of test compound) is reported as 89%. In addition, in [2] (10 µM), the “Percent inhibition of mtFabH” value stood at 75%.

As a reminder, the IC50 is the concentration that inhibits the measured activity by half. On to `CSSCCNC(=O)CCNC(=O)[C@H](O)C(C)(C)COP(=O)(O)OP(=O)(O)OC[C@H]1O[C@@H](n2cnc3c(N)ncnc32)[C@H](O)[C@@H]1OP(=O)(O)O` [Compound 25a], for which the IC50 is 57.1 ± 4.48 µM in assay [1] and more than 300 µM in assay [2]. The “Zones of growth inhibition, S. aureus” value in the assay with S. aureus (ATCC 25923) [3] worked out at 0 mm. In addition, the “Zones of growth inhibition, MRSA” value in assay [4] is on record as 0 mm.

`CCC(C)SSCCNC(=O)CCNC(=O)[C@H](O)C(C)(C)COP(=O)(O)OP(=O)(O)OC[C@H]1O[C@@H](n2cnc3c(N)ncnc32)[C@H](O)[C@@H]1OP(=O)(O)O` (stereo partly drawn) [Compound 25c]: the IC50 in assay [1] and in assay [2] was more than 300 µM in each case. Further, the “Zones of growth inhibition, S. aureus” value with S. aureus (ATCC 25923) [3] is reported as 0 mm. The “Zones of growth inhibition, MRSA” value in assay [4] amounted to 0 mm.

Consider `CCCCSSCCNC(=O)CCNC(=O)[C@H](O)C(C)(C)COP(=O)(O)OP(=O)(O)OC[C@H]1O[C@@H](n2cnc3c(N)ncnc32)[C@H](O)[C@@H]1OP(=O)(O)O` [Compound 25d], for which the IC50 in assay [1] and in assay [2] was more than 300 µM in each case.

Turning to `CCCCCCCCSSCCNC(=O)CCNC(=O)[C@H](O)C(C)(C)COP(=O)(O)OP(=O)(O)OC[C@H]1O[C@@H](n2cnc3c(N)ncnc32)[C@H](O)[C@@H]1OP(=O)(O)O` [Compound 25e], the IC50 in assay [1] was more than 300 µM; in [2], 23.2 ± 4.6 µM.

On to `CCCCCCCCCCSSCCNC(=O)CCNC(=O)[C@H](O)C(C)(C)COP(=O)(O)OP(=O)(O)OC[C@H]1O[C@@H](n2cnc3c(N)ncnc32)[C@H](O)[C@@H]1OP(=O)(O)O` [Compound 25f], for which the IC50 in [1] was more than 300 µM; in assay [2] it was 2.6 ± 1.6 µM.

A word on the inhibition: it is the drop in the measured response relative to a control, in per cent. As to `CCSSc1ccc([N+](=O)[O-])cc1` [Compound 38b, Ethyl p-nitrophenyl Disulfide], the inhibition at 5 µM in assay [1] (5 μM of test compound, read-out: Percent inhibition of FabH derived from E. coli, ecFabH (%)) is 98%. Further, the zone of inhibition at 20 µg/disc was found to be 47 mm with S. aureus (ATCC 25923) [3] (read-out: Zones of growth inhibition of S. aureus (ATCC 25923)); 54 mm in the assay with S. aureus (ATCC 25923) [3] (read-out: Zones of growth inhibition of S. aureus (ATCC 25923), areas of partial inhibition); 38 mm in assay [4] (Staphylococcus aureus, MRSA, read-out: Average zones of growth inhibition of MRSA (USF-652-659, 919-920)); 56 mm in the assay on B. anthracis (USF 848) [6] (read-out: Zones of growth inhibition of B. anthracis (USF 848)); 67 mm in the assay on B. anthracis (USF 848) [6] (read-out: Zones of growth inhibition of B. anthracis (USF 848), areas of partial growth inhibition). Moreover, the MIC with S. aureus (ATCC 25923) [5] is 32 µg/mL (≈ 149 µM); in the assay on B. anthracis (USF 848) [7], 0.25 µg/mL (≈ 1.16 µM); in assay [9], 16 µg/mL (≈ 74.3 µM). Moreover, the “Zone of Inhibition (mm), E. coli, zones of partial inhibition” value in assay [8] (number in parentheses) was 23 mm. Moreover, in [8] (number outside parentheses), the “Zone of Inhibition (mm), E. coli” value is given as 15 mm.
